Test results published in patent US8420658B2, “Use of Carboxyamidotriazole (CAI) orotate in macular degeneration” (Tactical Therapeutics Inc, priority 2006, dated 2013).

Experiments:
[1] = test system: Dunning rat model for prostate cancer; conditions: orotate salt of CAI compared with CAI; from U.S. Pat. Nos. 5,861,406 and 5,912,346; cited from earlier work
[2] = test system: Human umbilical vein endothelial cells (HUVEC); assay: Proliferation assay for endothelial cells (HUVEC), cell count after 3 days of treatment; assay type: cell-based; conditions: HUVEC treated with three different concentrations for 3 days; triplicate; FIG. 1
Experimental: FIG. 1 illustrates the results of the proliferation assay for endothelial cells (HUVEC).
Human umbilical vein endothelial cells (HUVEC) were treated with three different concentrations of Carboxyamidotriazole or 5 amino 1,2,3-triazole orotate (CAI Orotate) for 3 days. The cell number of each culture under different treatment conditions was counted. The assays were done in triplicate and the data are expressed as mean +/− standard deviation.

For `NC(=O)c1nnn(Cc2cc(Cl)c(C(=O)c3ccc(Cl)cc3)c(Cl)c2)c1N.O=C(O)c1cc(=O)[nH]c(=O)[nH]1` [CAI Orotate, Carboxyamidotriazole or 5 amino 1,2,3-triazole orotate], the “Antitumor effect compared with CAI” value [1] is given as “improved antitumor effect” and the “Inhibition of angiogenesis (HUVEC cell number)” value [2] is given as “inhibited angiogenesis in a dose related manner”.
